Laboratory results taken from US10919844B2, “Antibacterials and/or modulators of biofilm formation and methods of using the same” (Indiana University Research and Technology Corporation, priority 2015, dated 2021).
“Also recorded” adds a separate entry of the source.

What was measured:
[1] = water-solubility noted during extractive work-up; format: physicochemical; conditions: basic aqueous phase, extraction with dichloromethane
Pseudomonas aeruginosa = assay: P. aeruginosa biofilm formation assay (K357 biofilm assay, crystal violet OD readout); format: cell-based; conditions: for activity in the Biofilm Assay: FIG. 23; for activity of purified sample in the biofilm assay: FIGS. 26-28; for activity in preliminary screens: FIG. 1, compounds in red
Excerpt: A straightforward biological assay was developed to provide for the study these important bacterial biofilm communities. This assay also provided an efficient means for screening for compounds that have an effect on bacterial growth and/or biofilm formation.
The racemic amino acid derivatives 1 (synthesized in row A of each Bill-Board) are then screened for biological activity (antibacterial activity in a Kirby-Bauer disc plate assay) and/or K357 laboratory (assay for biofilm formation by Pseudomonas aeruginosa).
Referring now to FIG. 3, reproducible P. aeruginosa Biofilm Assays were carried out using newly synthesized twenty-one “unnatural” amino acids. See George A. O'Toole, Microtiter Dish Biofilm Formation Assay, J. VIS EXP. 2011; (47): 2437, disclosures of which are incorporated by reference in its entirety to the extent that they are not inconsistent with the explicit teachings of this specification.
Referring to FIGS. 34-35, all newly synthesized compounds prepared according to the schemes described above were assayed for biofilm formation in multiplicate 24 well plates at a screening dose of 20 μg/mL using crystal violet optical density (OD) readings as the readout. Results were expressed as % biofilm formation relative to a control (control=bacteria alone=100% biofilm formation). The procedure for the biofilm assay was the same as that used by students in the K357 biofilm laboratory.
Referring now to FIGS. 36-38, all compounds assayed in either 96 well or 24 well plates at a screening dose of either 20 or 40 μg/mL, using a biofilm assay with crystal violet optical density (OD) readings as the readout. Results were expressed as % biofilm formation (control=bacteria alone=100% biofilm formation). The procedure for the biofilm assay was the same as that used by students in the K357 biofilm laboratory.

Structure (SMILES) | water-solubility [1] | activity in the Biofilm Assay (Pseudomonas aeruginosa) | potency in modulating/inhibiting biofilm formation (SAR studies) (Pseudomonas aeruginosa) | activity of purified sample in the biofilm assay (Pseudomonas aeruginosa) | activity in preliminary screens (Pseudomonas aeruginosa) | activity of un-purified samples in the K357 biofilm assay (Pseudomonas aeruginosa) | potency in the biofilm assay compared with tobramycin (Pseudomonas aeruginosa; FIG. 24, comparator tobramycin)
NC(Cc1ccc(F)cc1)C(=O)NCCN1CCOCC1 (stereo not shown) [Compound 5n, 2-Amino-3-(4-fluorophenyl)-N-(2-morpholinoethyl)propanamide] | Appreciable water-solubility |  |  |  |  |  | 
NC(Cc1ccc(F)c(F)c1)C(=O)O (stereo not shown) [3,4-F2, 2-Amino-3-(3,4-difluorophenyl)propanoic acid] |  | showed activity | potent activity | active in a dose dependent manner |  |  | 
NC(Cc1ccccc1F)C(=O)O (stereo not shown) [Compound 2-F, 2-Amino-3-(2-fluorophenyl)propanoic acid] |  | showed activity | potent activity | active in a dose dependent manner | showed activity | active | 
NC(Cc1cccc(F)c1)C(=O)O (stereo not shown) [Compound 3-F, 2-Amino-3-(3-fluorophenyl)propanoic acid] |  | showed activity | potent activity | active in a dose dependent manner | showed activity |  | 
N[C@@H](Cc1ccc(I)cc1)C(=O)O [Compound 4-I] |  |  |  |  | showed activity |  | 
NC(Cc1ccc(F)cc1)C(=O)N1CCCC1 (stereo not shown) [Compound 5p, 2-Amino-3-(4-fluorophenyl)-1-(pyrrolidin-1-yl)propan-1-one] | Appreciable water-solubility |  |  |  |  |  | 
NC(=O)C(N)Cc1ccc(F)cc1 (stereo not shown) [4-fluorophenylalanine amide, 2-Amino-3-(4-fluorophenyl)propanamide] |  |  | very potent inhibitor |  |  |  | 
NC(Cc1ccc(F)cc1)C(=O)O (stereo not shown) [Compound 4-F, 2-Amino-3-(4-fluorophenyl)propanoic acid] |  | showed activity | potent activity | active in a dose dependent manner; also recorded: confirmed this activity | showed activity | active | as potent as tobramycin
